Experimental data: the supplement of paper PMC10627819

Key:
Assay in all cases: Bliss interaction score (quartile over a dose matrix) (fitness difference); higher = more antagonism (negative = synergy)
[1] = test system: S. pneumoniae D39V
How it was run: (§1)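 OD595 was read at entry into stationary phase and expressed relative to the robust mean of the no-drug wells on the same plate, capped at 1. The resulting ratio is the fitness value. The Bliss score, observed fitness minus product-based expected fitness with single-drug fitness inferred from combinations, is summarised by quartiles over technical, biological and donor/recipient replicates.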

[2] = test system: S. aureus Newman
How it was run: as §1

[3] = test system: S. aureus DSM 20231
How it was run: as §1

[4] = test system: B. subtilis 168
How it was run: as §1
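Also: first quartile when negative (synergy) and third quartile when positive (antagonism).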

Row | SMILES | Bliss interaction score [1] | Bliss interaction score [2] | Bliss interaction score [3] | Bliss interaction score [4] | Bliss interaction score ([1]; main component drawn) | Bliss interaction score ([2]; main component drawn) | Bliss interaction score ([3]; main component drawn) | Bliss interaction score ([4]; main component drawn)
1 | N#CC(C#N)=NNc1cccc(Cl)c1 [CCCP] + C[C@H]1c2cccc(O)c2C(=O)C2=C(O)[C@]3(O)C(=O)C(C(N)=O)=C(O)[C@@H](N(C)C)[C@@H]3[C@@H](O)[C@@H]21 [Doxycycline] | 0.047 | 0.0768 | -0.0215 | -0.0353 | – | – | – | –
2 | CC(=O)Oc1ccccc1C(=O)O [Acetylsalicylicacid] + CO[C@H]1/C=C/O[C@@]2(C)Oc3c(C)c(O)c4c(O)c(c(/C=N/N5CCN(C)CC5)c(O)c4c3C2=O)NC(=O)/C(C)=C\C=C\[C@H](C)[C@H](O)[C@@H](C)[C@@H](O)[C@@H](C)[C@H](OC(C)=O)[C@@H]1C [Rifampicin] | 0.0476 | 0.036 | 0.0617 | 0.131 | – | – | – | –
3 | CN(C)[C@@H]1C(O)=C(C(N)=O)C(=O)[C@@]2(O)C(O)=C3C(=O)c4c(O)ccc(Cl)c4[C@@](C)(O)[C@H]3C[C@@H]12 [Clortetracycline] + CC1=C\[C@@H](O)CC(=O)Cc2nc(co2)C(=O)N2CCC=C2C(=O)O[C@H](C(C)C)[C@H](C)/C=C/C(=O)NC\C=C\1 [Virginiamycin M1] | -0.0413 | -0.049 | -0.0704 | 0.0837 | – | – | – | –
4 | CN(C)c1cc(NC(=O)CNC(C)(C)C)c(O)c2c1C[C@H]1C[C@H]3[C@H](N(C)C)C(O)=C(C(N)=O)C(=O)[C@@]3(O)C(O)=C1C2=O [Tigecycline] + Oc1cc(Cl)ccc1Oc1ccc(Cl)cc1Cl [Triclosan] | 0.0471 | 0.0252 | 0.101 | 0.0719 | – | – | – | –
5 | CC(=O)Oc1ccccc1C(=O)O [Acetylsalicylicacid] + CC(=O)O[C@H]1C[C@@]2(C)[C@@H](C[C@@H](O)[C@H]3[C@@]4(C)CC[C@@H](O)[C@@H](C)[C@@H]4CC[C@@]32C)/C1=C(\CCC=C(C)C)C(=O)O [Fusidic acid] | 0.0675 | -0.0211 | 0.0354 | -0.0821 | – | – | – | –
6 | CO/N=C(\C(=O)N[C@@H]1C(=O)N2C(C(=O)O)=C(COC(N)=O)CS[C@H]12)c1ccco1 [Cefuroxime] + CN[C@H](CC(C)C)C(=O)N[C@H]1C(=O)N[C@@H](CC(N)=O)C(=O)N[C@H]2C(=O)N[C@H]3C(=O)N[C@H](C(=O)N[C@H](C(=O)O)c4cc(O)cc(O)c4-c4cc3ccc4O)[C@H](O[C@H]3C[C@](C)(N)[C@@H](O)[C@H](C)O3)c3ccc(c(Cl)c3)Oc3cc2cc(c3O[C@@H]2O[C@H](CO)[C@@H](O)[C@H](O)[C@H]2O[C@H]2C[C@](C)(NCc3ccc(-c4ccc(Cl)cc4)cc3)[C@@H](O)[C@H](C)O2)Oc2ccc(cc2Cl)[C@H]1O [Oritavancin] | 0.0536 | -0.103 | -0.0743 | -0.0309 | – | – | – | –
7 | CC(=O)Oc1ccccc1C(=O)O [Acetylsalicylicacid] + COc1cc(Cc2cnc(N)nc2N)cc(OC)c1OC [Trimethoprim] | -0.163 | 0.0981 | -0.0672 | 0.123 | – | – | – | –
8 | CO/N=C(\C(=O)N[C@@H]1C(=O)N2C(C(=O)O)=C(COC(C)=O)CS[C@H]12)c1csc(N)n1 [Cefotaxime] + CN(C)[C@@H]1C(O)=C(C(N)=O)C(=O)[C@@]2(O)C(O)=C3C(=O)c4c(O)ccc(Cl)c4[C@@](C)(O)[C@H]3C[C@@H]12 [Clortetracycline] | 0.0665 | 0.0483 | 0.0917 | 0.0481 | – | – | – | –
9 | CC(=O)Oc1ccccc1C(=O)O [Acetylsalicylicacid] + COc1cccc2c1C(=O)c1c(O)c3c(c(O)c1C2=O)C[C@@](O)(C(=O)CO)C[C@@H]3O[C@H]1C[C@H](N)[C@H](O)[C@H](C)O1 [Doxorubicin] | 0.0551 | 0.0561 | 0.0666 | 0.225 | – | – | – | –
10 | N#CC(C#N)=NNc1cccc(Cl)c1 [CCCP] + Cc1ncc([N+](=O)[O-])n1CCO [Metronidazole] | 0.12 | -0.0331 | 0.0642 | 0.0615 | – | – | – | –
11 | CC(=O)Oc1ccccc1C(=O)O [Acetylsalicylicacid] + CC[C@H]1OC(=O)[C@H](C)[C@@H](O[C@H]2C[C@@](C)(OC)[C@@H](O)[C@H](C)O2)[C@H](C)[C@@H](O[C@@H]2O[C@H](C)C[C@H](N(C)C)[C@H]2O)[C@](C)(O)C[C@@H](C)C(=O)[C@H](C)[C@@H](O)[C@]1(C)O [Erythromycin] | 0.0745 | 0.144 | 0.1 | 0.184 | – | – | – | –
12 | N#CC(C#N)=NNc1cccc(Cl)c1 [CCCP] + O=C(O)c1cn(C2CC2)c2cc(N3CCNCC3)c(F)cc2c1=O [Ciprofloxacin] | 0.0549 | -0.0497 | -0.0358 | -0.0456 | – | – | – | –
13 | N#CC(C#N)=NNc1cccc(Cl)c1 [CCCP] + Cn1nnc(-c2ccc(-c3ccc(N4C[C@H](CO)OC4=O)cc3F)cn2)n1 [Tedizolid] | 0.044 | 0.104 | -0.031 | -0.0578 | – | – | – | –
14 | CC(=O)Oc1ccccc1C(=O)O [Acetylsalicylicacid] + CC1=C\[C@@H](O)CC(=O)Cc2nc(co2)C(=O)N2CCC=C2C(=O)O[C@H](C(C)C)[C@H](C)/C=C/C(=O)NC\C=C\1 [Virginiamycin M1] | -0.0556 | -0.0537 | -0.0657 | -0.0602 | – | – | – | –
15 | CC(=O)Oc1ccccc1C(=O)O [Acetylsalicylicacid] + CCCCCCCCCC(=O)N[C@@H]1[C@H]([C@@H]([C@H](O[C@H]1OC2=C3C=C4C=C2OC5=C(C=C(C=C5)[C@H]([C@H]6C(=O)N[C@@H](C7=C(C(=CC(=C7)O)OC8[C@H]([C@H]([C@@H]([C@H](O8)CO)O)O)O)C9=C(C=CC(=C9)[C@H](C(=O)N6)NC(=O)[C@@H]4NC(=O)[C@@H]1C2=CC(=CC(=C2)OC2=C(C=CC(=C2)[C@H](C(=O)N[C@H](CC2=CC(=C(O3)C=C2)Cl)C(=O)N1)N)O)O)O)C(=O)O)O[C@H]1[C@@H]([C@H]([C@@H]([C@H](O1)CO)O)O)NC(=O)C)Cl)CO)O)O [Teicoplanin] | – | – | – | – | -0.045 | -0.0656 | 0.0851 | 0.206
16 | COc1cccc2c1C(=O)c1c(O)c3c(c(O)c1C2=O)C[C@@](O)(C(=O)CO)C[C@@H]3O[C@H]1C[C@H](N)[C@H](O)[C@H](C)O1 [Doxorubicin] + Oc1cc(Cl)ccc1Oc1ccc(Cl)cc1Cl [Triclosan] | -0.0416 | -0.0426 | -0.0295 | -0.0317 | – | – | – | –
